Literature values, collected in US4370313A, “Nitrofurantoin dosage form” (Eaton Laboratories, Inc., priority 1981, dated 1983).

In the case of `O=C1CN(/N=C/c2ccc([N+](=O)[O-])o2)C(=O)N1` [nitrofurantoin], the “preferred absorption in a limited segment of the human gastrointestinal tract” value is listed as “duodenum” and the “expected urinary level peaks” value (immediately available dose, conventional dosage forms, human) is listed as 2 to 3 h.
